Source: patent publication US5093233A, “Antagonists with position 13 modification” (Merck & Co., Inc., priority 1990, dated 1992)
Square brackets hold non-standard residues; d marks the D form. Peptide text beside a SMILES is read from it. * marks the point of attachment. Hydrocinnamoyl = O=C(CCc1ccccc1)*; Nle = CCCC[C@H](N)C(=O)O; Hexanoyl = CCCCCC(=O)*

Biological target: T1, PTH receptor, bovine renal cortical plasma membranes (Bos taurus, UniProt Q1LZF7)
T1 construct: from tissue; host or cells: bovine renal cortex (plasma membrane preparation)
T1 sequence (Q1LZF7 29-589): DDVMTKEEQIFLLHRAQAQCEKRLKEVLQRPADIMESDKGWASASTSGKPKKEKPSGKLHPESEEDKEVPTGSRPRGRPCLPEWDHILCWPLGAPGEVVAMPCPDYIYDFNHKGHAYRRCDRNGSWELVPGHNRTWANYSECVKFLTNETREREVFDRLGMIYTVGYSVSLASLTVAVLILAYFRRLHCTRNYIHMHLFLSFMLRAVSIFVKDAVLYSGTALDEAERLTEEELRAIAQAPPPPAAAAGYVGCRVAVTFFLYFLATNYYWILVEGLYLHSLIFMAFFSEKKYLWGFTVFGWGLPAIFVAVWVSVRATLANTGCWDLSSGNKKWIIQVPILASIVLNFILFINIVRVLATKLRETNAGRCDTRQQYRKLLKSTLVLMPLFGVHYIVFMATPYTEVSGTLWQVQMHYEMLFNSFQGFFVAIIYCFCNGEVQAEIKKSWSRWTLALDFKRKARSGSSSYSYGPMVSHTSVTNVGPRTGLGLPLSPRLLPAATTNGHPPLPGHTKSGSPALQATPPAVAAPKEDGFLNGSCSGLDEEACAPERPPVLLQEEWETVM
Assay: PTH binding assay in bovine renal membranes
Conditions: radioligand [Nle8,18,125I-Tyr34]bPTH(1-34)NH2, 30 min at 21° C.
Method: PTH analogues were analyzed in a new receptor assay reported in Goldman et al., Endocrin. 123: 1468-1475 (1988). The binding assay used [Nle^8,18,^125 I-Tyr^34 ]bPTH (1-34)NH2 which was purified by HPLC (Novapak C18, 32-35% CH3 CN in 0.1% TFA) and was stored as aliquots in 25 mM TrisHCl/1%BSA at -70° C. Bovine renal cortical plasma membranes were incubated with radioligand (25,000 cpm) in a Tris-containing buffer (250 ul) for 30 min. at 21° C. Once equilibrium was reached, bound and free radioligand were separated by centrifugation. High specific binding (85%) to bovine renal cortical membranes was obtained consistently.

| Kb [nM] | Compound |
| --- | --- |
| 13 ± 2 | CCCC[C@H](NC(=O)CCc1ccccc1)C(=O)N[C@@H](Cc1c[nH]cn1)C(=O)N[C@@H](CC(N)=O)C(=O)N[C@@H](CC(C)C)C(=O)N[C@H](Cc1c[nH]c2ccccc12)C(=O)N[C@@H](CCCCNC(=O)CCc1ccccc1)C(=O)N[C@@H](Cc1c[nH]cn1)C(=O)N[C@@H](CC(C)C)C(=O)N[C@@H](CO)C(=O)N[C@@H](CO)C(=O)N[C@@H](CCCC)C(=O)N[C@@H](CCC(=O)O)C(=O)N[C@@H](CCCNC(=N)N)C(=O)N[C@H](C(=O)N[C@@H](CCC(=O)O)C(=O)N[C@@H](Cc1c[nH]c2ccccc12)C(=O)N[C@@H](CC(C)C)C(=O)N[C@@H](CCCNC(=N)N)C(=O)N[C@@H](CCCCN)C(=O)N[C@@H](CCCCN)C(=O)N[C@@H](CC(C)C)C(=O)N[C@@H](CCC(N)=O)C(=O)N[C@@H](CC(=O)O)C(=O)N[C@H](C(=O)N[C@@H](Cc1c[nH]cn1)C(=O)N[C@@H](CC(N)=O)C(=O)N[C@@H](Cc1ccc(O)cc1)C(N)=O)C(C)C)C(C)C [Structure 1, desamino[Nle^8,18,D-Trp^12,Lys^13 (N^ε --CO(CH2)2 -Phenyl),Tyr^34]bPTH(7-34)NH2] (Hydrocinnamoyl-[Nle]HNL[dW]K(Hydrocinnamoyl)HLSS[Nle]ERVEWLRKKLQDVHNY-NH2) |
| 4 ± 1 | CCCCCC(=O)N[C@@H](Cc1c[nH]cn1)C(=O)N[C@@H](CC(N)=O)C(=O)N[C@@H](CC(C)C)C(=O)N[C@H](Cc1c[nH]c2ccccc12)C(=O)N[C@@H](CCCCNC(=O)CCc1ccccc1)C(=O)N[C@@H](Cc1c[nH]cn1)C(=O)N[C@@H](CC(C)C)C(=O)N[C@@H](CO)C(=O)N[C@@H](CO)C(=O)N[C@@H](CCCC)C(=O)N[C@@H](CCC(=O)O)C(=O)N[C@@H](CCCNC(=N)N)C(=O)N[C@H](C(=O)N[C@@H](CCC(=O)O)C(=O)N[C@@H](Cc1c[nH]c2ccccc12)C(=O)N[C@@H](CC(C)C)C(=O)N[C@@H](CCCNC(=N)N)C(=O)N[C@@H](CCCCN)C(=O)N[C@@H](CCCCN)C(=O)N[C@@H](CC(C)C)C(=O)N[C@@H](CCC(N)=O)C(=O)N[C@@H](CC(=O)O)C(=O)N[C@H](C(=O)N[C@@H](Cc1c[nH]cn1)C(=O)N[C@@H](CC(N)=O)C(=O)N[C@@H](Cc1ccc(O)cc1)C(N)=O)C(C)C)C(C)C [Structure 2, desamino[Nle^8,18,D-Trp^12,Lys^13 (N^ε --CO(CH2)2 -Phenyl),Tyr^34]bPTH(8-34)NH2] (Hexanoyl-HNL[dW]K(Hydrocinnamoyl)HLSS[Nle]ERVEWLRKKLQDVHNY-NH2) |
| 4 ± 1 | CCCC[C@H](NC(=O)[C@H](CO)NC(=O)[C@H](CO)NC(=O)[C@H](CC(C)C)NC(=O)[C@H](Cc1c[nH]cn1)NC(=O)[C@H](CCCCNC(=O)CCc1ccccc1)NC(=O)[C@@H](Cc1c[nH]c2ccccc12)NC(=O)[C@H](CC(C)C)NC(=O)[C@H](CC(N)=O)NC(=O)[C@H](Cc1c[nH]cn1)NC(=O)[C@H](CCCC)NC(=O)[C@@H](N)Cc1ccccc1)C(=O)N[C@@H](CCC(=O)O)C(=O)N[C@@H](CCCNC(=N)N)C(=O)N[C@H](C(=O)N[C@@H](CCC(=O)O)C(=O)N[C@@H](Cc1c[nH]c2ccccc12)C(=O)N[C@@H](CC(C)C)C(=O)N[C@@H](CCCNC(=N)N)C(=O)N[C@@H](CCCCN)C(=O)N[C@@H](CCCCN)C(=O)N[C@@H](CC(C)C)C(=O)N[C@@H](CCC(N)=O)C(=O)N[C@@H](CC(=O)O)C(=O)N[C@H](C(=O)N[C@@H](Cc1c[nH]cn1)C(=O)N[C@@H](CC(N)=O)C(=O)N[C@@H](Cc1ccc(O)cc1)C(N)=O)C(C)C)C(C)C [Structure 3, [Nle^8,18,D-Trp^12,Lys^13 (N^ε --CO(CH2)2 -Phenyl),Tyr^34]bPTH(7-34)NH2] |
| 35 ± 4 | CCCC[C@H](NC(=O)[C@H](CO)NC(=O)[C@H](CO)NC(=O)[C@H](CC(C)C)NC(=O)[C@H](Cc1c[nH]cn1)NC(=O)[C@H](CCCCN(CC(C)C)CC(C)C)NC(=O)[C@@H](Cc1c[nH]c2ccccc12)NC(=O)[C@H](CC(C)C)NC(=O)[C@H](CC(N)=O)NC(=O)[C@H](Cc1c[nH]cn1)NC(=O)[C@H](CCCC)NC(=O)[C@@H](N)Cc1ccccc1)C(=O)N[C@@H](CCC(=O)O)C(=O)N[C@@H](CCCNC(=N)N)C(=O)N[C@H](C(=O)N[C@@H](CCC(=O)O)C(=O)N[C@@H](Cc1c[nH]c2ccccc12)C(=O)N[C@@H](CC(C)C)C(=O)N[C@@H](CCCNC(=N)N)C(=O)N[C@@H](CCCCN)C(=O)N[C@@H](CCCCN)C(=O)N[C@@H](CC(C)C)C(=O)N[C@@H](CCC(N)=O)C(=O)N[C@@H](CC(=O)O)C(=O)N[C@H](C(=O)N[C@@H](Cc1c[nH]cn1)C(=O)N[C@@H](CC(N)=O)C(=O)N[C@@H](Cc1ccc(O)cc1)C(N)=O)C(C)C)C(C)C [Structure 4, [Nle^8,18,D-Trp^12,Lys^13 (N^ε,N^ε -diisobutyl),Tyr^34]bPTH(7-34)NH2] |
